Among the data in ChEMBL document CHEMBL5215006, “Antitumor Activity of Piceamycin by Upregulation of N-Myc Downstream-Regulated Gene 1 in Human Colorectal Cancer Cells” (J Nat Prod, 2022) are Activity values, retold here.

In test [1] the test system is HCT-116. Kind of test: Cell cycle arrest in human HCT-116 cells assessed as accumulation at G0/G1 phase at 0.075 uM incubated for 24 hrs by RNaseA/propidium iodide staining based flow cytometry (reference value: 48.44 %). It is filed as functional. Background: In flow cytometry, cells or beads pass a laser one at a time.
For test [2], the system named is HCT-116. As to the kind of experiment: Cell cycle arrest in human HCT-116 cells assessed as accumulation at G2/M phase at 0.075 uM incubated for 24 hrs by RNaseA/propidium iodide staining based flow cytometry (reference value: 28.41 %). It is filed as functional.
Test [3] concerns HCT-116. Kind of test: Cell cycle arrest in human HCT-116 cells assessed as downregulation of CDK4 protein expression at 0.075 to 0.3 uM incubated for 24 hrs by immunoblotting assay. It is filed as functional, cell-based. Conditions: dose 0.075-0.3 µM. (In western blotting, separated proteins are transferred to a membrane and probed.)
The subject of test [4] is SW480. Kind of test: Induction of apoptosis in human SW480 cells assessed as downregulation of survivin expression at 1.4 uM measured at 12 to 48 hrs by immunoblotting assay. It is filed as functional, cell-based. Conditions: time 12-48 hrs, TDE = time-dependent effect.
For test [5], the system named is HCT-116. Kind of test: Induction of apoptosis in human HCT-116 cells assessed as necrotic cells at 0.3 uM incubated for 48 hrs by Annexin V-FITC/PI staining based flow cytometry analysis (Rvb= 0.13%). It is filed as functional.
Test [6] deals with SW480. Kind of test: Induction of apoptosis in human SW480 cells assessed as necrotic cells at 0.7 uM incubated for 48 hrs by Annexin V-FITC/PI staining based flow cytometry analysis (Rvb= 0.07%). It is filed as functional.
Test [7] concerns HCT-116. Kind of test: Upregulation of c-Myc protein expression in human HCT-116 cells with NDRG1 knockdown at 0.3 uM incubated for 24 hrs by immunoblotting assay. It is filed as functional, cell-based.
Test [8] has as its system HCT-116. Kind of test: Antitumor activity against human HCT-116 cells assessed as decrease in c-Myc expression at 0.075 to 0.3 uM incubated for 24 hrs by immunoblotting assay. It is filed as functional, cell-based. Conditions: dose 0.075-0.3 µM.
Test [9] deals with HCT-116. Kind of test: Antitumor activity against human HCT-116 cells xenografted Balb/c mouse assessed as decrease in Ki67 protein expression at 1 mg/kg,ip administrated for 18 days by 3 times per week by immunoblotting assay. The note with it: time 18.0 day. It is filed as functional, organism-based. On the technique in general: In xenograft studies the graft and the host belong to different species.

Active and inactive are the calls of the source. No cut-off for these calls is given here.

For `C[C@@H]1\C=C/C=C/C=C\C=C\C=C\C(=O)C2=C(O)C(=O)C[C@@]2(C)/C=C/C=C\C=C/C(=O)NC1`, the Activity was 48.48% in test [1]; 29.02% in [2]; “Tde” in test [4]; 0.18% in [5]; 0.08% in test [6]. The outcome in test [3], in test [7], in [8] and in [9] was Active.
